# Laboratory results taken from the METLIN SMRT retention time set (Domingo-Almenara et al. 2019).
# Experiment: gradient 5% acetonitrile 3 min, to 50% in 2 min, to 85% in 15 min, held 3 min, 100 µL/min
# Conditions: column: Zorbax Extend-C18 2.1 x 50 mm; eluents: water / acetonitrile, 0.1% formic acid
# Summary of the method: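 The mobile phases were water and acetonitrile, each with 0.1% formic acid, pumped at 100 μL/min through a Zorbax Extend-C18 column (2.1 × 50 mm, 1.8 μm). Pure standards were injected as mixtures of ~100 molecules and detected by a quadrupole time-of-flight mass spectrometer in positive and negative ionization mode. Retention time came from computationally picked adduct peaks, each inspected by hand.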
row,Compound,RP-LC retention time [s]
1,CC1CCc2nc(NC(=O)CSc3nnc(-c4ccccc4)o3)sc2C1 (stereo unspecified),989
2,COc1ccc(NC(=O)C2CCCN2S(=O)(=O)c2ccc3c(c2)N(C(C)=O)CCO3)cc1 (stereo unspecified),762
3,Cc1oc(-c2[nH]ncc2C(=O)N2CCCC2)cc1S(=O)(=O)NCc1cccc(Cl)c1,796
4,Cc1cc(Cn2cnc3c2C[C@@H](C(=O)O)N(C(=O)C(c2ccccc2)c2ccccc2)C3)ccc1N,700
5,CCN(CC)c1ncc2c(n1)CCC(C(=O)Nc1ccc(N3CCOCC3)cc1)C2 (stereo unspecified),641
6,CCN(CC)CCCNC(=O)C1CCCN(c2ncc(-c3cccc(F)c3)cn2)C1 (stereo unspecified),677
7,CC(C)CN1Cc2ccccc2-n2ccnc2C12CCN(C(=O)c1ccco1)CC2,654
8,COc1cc(C2C(=O)N(C3CCCC3)CC(=O)N2Cc2ccco2)ccc1OC(C)C (stereo unspecified),915
9,CC1CC(=O)N(CC(=O)Nc2ccc3c(c2)OCO3)c2ccccc2S1 (stereo unspecified),865
10,O=C(OCc1cccnc1)c1cn(-c2cccc(F)c2)c(=O)c2ccccc12,753
11,COCC(=O)NC1CCC12CCN(S(=O)(=O)c1c(C)nn(C)c1C)CC2 (stereo unspecified),657
12,COc1ccc(N2C(=O)N[C@H]3C[C@@]2(C)Oc2c(OC)cccc23)c(OC)c1,712
13,COc1ccc(NC(=O)CSc2nccnc2-n2nc(C)cc2C)cc1OC,702
14,COc1ccc(S(=O)(=O)Cc2nc(-c3cccc(Cl)c3)no2)cc1,1020
15,COc1ccc(N2CCN(c3cc(SCC(=O)NCCC4=CCCCC4)ncn3)CC2)cc1,1080
16,Cc1cccc(CN2CCC(CNC(=O)C3CCCN(c4nccc(C)n4)C3)CC2)c1 (stereo unspecified),615
17,COC(=O)c1cccc(N2C=C(C#N)S(=O)(=O)c3ccc(Cl)cc32)c1,930
18,O=C(C1CCCN(c2ncccc2-c2noc(C3CCC3)n2)C1)N1CCCCC1 (stereo unspecified),928
19,CN(C)C(=O)c1ccc2oc(CN3CCN(C(=O)NC4CCCCC4)CC3)nc2c1,614
20,O=C(c1cnccn1)N1CCCCC1c1nc(-c2ccc(F)cc2)no1 (stereo unspecified),918
21,O=C(CNC(=O)c1ccc(=O)[nH]c1)NCCOc1ccc(F)cc1,583
22,Cc1noc(C)c1Cn1cccc(S(=O)(=O)N2CCCC2)c1=O,644
23,OCCn1cc(-c2cnc3nnn(Cc4ccc5ncccc5c4)c3n2)cn1,620

row,Compound,RP-LC retention time [s]
1,O=C(Cc1ccsc1)N1CCC[C@H]1c1nc(-c2ccccc2)n[nH]1,718
2,CCOC(=O)CNC(=O)NCc1ccc2ncccc2c1,596
3,O=C(Nc1cnn(-c2ncc(N3CCCC3)cn2)c1)c1cccc(C(F)(F)F)c1,917
4,Cc1ccc(-c2ccc(OCC(=O)NC(C)(C)C)cc2)cc1,1100
5,O=C(Nc1cccc(-c2nnc3n2CCCC3)c1)c1ccco1,640
6,CCc1ccc(NC(=O)C2(C)Oc3cccnc3N(C(C)C)C2=O)cc1 (stereo unspecified),1120
7,Cc1cc(=O)n(CC(=O)Nc2ccccc2F)c(N2CCCC2)n1,616
8,CCc1ccc(CNC(=O)c2cc3c(=O)n(C)c(=O)n(C)c3s2)cc1,830
9,CCn1cc(S(=O)(=O)Nc2ccc(OC)c(Cl)c2)c2cccnc21,832
10,CCNC(=O)c1cc(=O)[nH]c2c(Cl)cccc12,614
11,CC(C)c1ccc(NC(=O)C2CC(=O)N(CCc3c[nH]c4ccc(Cl)cc34)C2)cc1 (stereo unspecified),983
12,O=C(NC1CCCC1)c1nc(C(=O)N2CCN(c3ccccn3)CC2)cs1,595
13,COC(=O)c1cc(OCC(=O)Nc2ccc3c(c2)OCCO3)c2ccccc2n1,755
14,Cc1cccc(S(=O)(=O)N2C[C@@H](F)C[C@H]2C(=O)N2CCc3ccccc3C2)c1,906
15,Cc1cccc2sc(NC(=O)Cc3csc(Nc4ccc(Cl)cn4)n3)nc12,1140
16,CCCc1noc(-c2cccnc2N2CCCN(C(=O)Nc3cc(C)ccc3C)CC2)n1,995
17,COC(=O)c1ccc2c(=O)n(CCc3ccccc3)c(N3CCC(C)CC3)nc2c1,1380
18,CCOC(=O)c1cnc2c(-c3ccc(Br)cc3)c(C)nn2c1N,1230
19,Cc1scc2nc(C(=O)Nc3ccccc3)nc(N(C)C)c12,658
20,O=C(NCc1ccnc(N2CCSCC2)c1)Nc1ccc(Cl)cc1,649
21,CCOc1ccc(N2CC(NC(=O)NCCc3ccc(S(N)(=O)=O)cc3)CC2=O)cc1 (stereo unspecified),617
22,O=C(c1ccc2ccccc2n1)N1CCC(OCC2CC2)C1 (stereo unspecified),832
23,Cc1noc(C)c1S(=O)(=O)N1CCc2c(c(-c3nnc(-c4ccccc4)o3)nn2C)C1,880

row,Compound,RP-LC retention time [s]
1,COCCNC(=O)c1ccc2nc(CCc3ccc(NC(C)=O)cc3)[nH]c2c1,573
2,Cc1ccccc1C(=O)Nc1ccc2c(c1)Sc1ncccc1C(=O)N2C(C)C,872
3,Cc1ccc(NC(=O)C2CCN(S(=O)(=O)c3cc(C(=O)N(C)C)cs3)CC2)cc1C,835
4,CCCN(C)CC1(O)CCC2(CCN(C(=O)c3ccc(Cl)s3)CC2)CC1,647
5,Cc1ccc(S(=O)(=O)N2CC3CN(C(=O)COCc4ccccc4)CC(C2)O3)cc1,849
6,Cc1ccc(-c2noc(Cn3ccn(-c4ccc(Cl)cc4)c(=O)c3=O)n2)cc1,918
7,CCNC(=O)c1nc(C(=O)NC(C)C)cs1,656
8,COc1ccccc1NC(=O)N1c2ccccc2NC2=C(C(=O)CCC2)C1c1ccco1 (stereo unspecified),830
9,CCC(=O)Nc1ccc(C2(C(=O)NCCN3CCCC3)CCCCC2)cc1,606
10,CSc1cccc(NC(=O)C2CCCN(C(=O)c3ccc(Cl)cc3)C2)c1 (stereo unspecified),973
11,Cc1cnc(C2CN(Cc3cccc(F)c3)C2)n1Cc1ccccc1,595
12,Cc1ccc(-c2cc3c(=O)n(Cc4nc(-c5ccc(Cl)cc5)no4)ncn3n2)c(C)c1,1320
13,Nc1cc(C2CCN(S(=O)(=O)c3ccccc3)CC2)no1,732
14,CCCC(NC(=O)c1cc(OC)c(OC)c(OC)c1)C(=O)Nc1nc2ccccc2[nH]1 (stereo unspecified),688
15,COC(=O)c1ccc(NC(=O)c2ccc(-n3ccnc3C)nn2)cc1,561
16,CCc1nc2cc(CNC(=O)Cc3ccc(Cl)cc3)ccc2n1C,641
17,O=C(CCC1CCN(S(=O)(=O)c2ccccc2)CC1)N1CCOCC1,741
18,Cc1nnc(-c2ccc3ccn(CC(=O)NCCCc4ccccc4)c3c2)o1,807
19,Cc1ccn2c(NC(=O)Cc3ccccc3)c(-c3ccc(F)cc3)nc2c1,669
20,CCOCCCNC(=O)Cn1c(-c2cccs2)cc2cc(F)ccc21,946
21,CCCCNc1c(C(=O)OC)c(=O)[nH]c2c(Cl)cccc12,783
22,COc1ccc(C(=O)N2CCC[C@H]2c2nc(C(C)C)n[nH]2)c(OC)n1,590
23,O=C(NCC1CCOCC1)Nc1cc(F)c(F)c(F)c1,755

row,Compound,RP-LC retention time [s]
1,CCOc1ccc(-c2nc(-c3cccc(-c4ccnn4C)c3)no2)cc1,1230
2,CCOC(=O)Cn1c(C2CC(=O)N(c3cc(Cl)ccc3OC)C2)nc2ccccc21 (stereo unspecified),778
3,O=C(NCc1ccncc1)C1CCCN(c2ccc(Sc3ccc(Br)cc3)nn2)C1 (stereo unspecified),653
4,O=C(c1nccc2ccccc12)N1CCc2cc(-c3ccno3)ccc21,1000
5,Cc1cccc(N2C(=O)CN(S(C)(=O)=O)CC2(C)C(=O)NCc2ccc(F)cc2)c1C (stereo unspecified),809
6,O=C(NCCc1csc(C2CCCN(C(=O)C3CC3)C2)n1)C1CCC1 (stereo unspecified),682
7,CCCCC(=O)N1CCCC(C)C1 (stereo unspecified),878
8,COCCNC(=O)CC1CCN(C(=O)c2[nH]c(C)c(C)c2C)CC1,657
9,COc1cc(NC(=O)CN2C(=O)C(O)(c3cccc(F)c3)c3ccccc32)cc(OC)c1 (stereo unspecified),894
10,CCOCCCNC(=O)COc1nc(C)nc2onc(-c3ccccc3)c12,846
11,CCN(CC)CCNC(=O)Cn1c2ccccc2c2nc(=O)cc(C)n21,592
12,Cc1ccc(C)c(-c2coc(-c3ccc(NC(=O)c4sccc4C)cc3)n2)c1,1330
13,O=C(NCc1ccco1)Nc1cccc([N+](=O)[O-])c1,846
14,CCS(=O)(=O)N1CCCc2cc(C(=O)NC(C)(C)C)ccc21,826
15,CCOc1ccccc1C(=O)Nc1ccc(Cl)c(C(F)(F)F)c1,1230
16,CCCN(CCC)CCCNC(=O)C1CCCN(c2ncc(-c3cccc(F)c3)cn2)C1 (stereo unspecified),747
17,CCn1c(=O)c(C)nc2cc(-c3noc(-c4ccc(Br)o4)n3)ccc21,1040
18,O=C([C@@H]1C[C@H](F)CN1C(=O)c1ccc(Cl)cc1)N1CCCCC1,724
19,CC(C(=O)NCCN1CCCCCC1)n1c(=O)c(C(F)(F)F)nc2ccccc21 (stereo unspecified),713
20,CCOc1ccc(C(=O)Nc2nc(-c3cccc(Br)c3)cs2)cc1,1240
21,CCOC(=O)C1=C(CN(C)Cc2ccccc2)NC(=O)NC1c1ccc(C)cc1 (stereo unspecified),670
22,CCOC(=O)Cc1nc(-c2cncc(Br)c2)n[nH]1,673
